# Measurements reported in patent US20160271209A1, “ANTIBACTERIAL COMPOSITION” (ECO FRIENDLY INSTITUTE LIMITED., priority 2012, published 2016).
# What was measured:
# [1] = test system: Escherichia coli NBRC 3301 strain; test: Antibacterial activity against Escherichia coli (1): contact for days, colony count; format: cell-based; details: Table 2, nisin 10 μg/mL
# Procedure: The Escherichia coli NBRC 3301 strain, which is a Gram-negative bacterium, was cultured to the logarithmic phase in Tryptic Soy Broth (TSB). The culture medium was diluted with sterilized purified water to adjust the number of bacteria (10^3 to 10^4 CFU/mL). Test solutions were prepared by dilution with sterilized purified water so as to contain nisin (10 μg/mL), the 5-fold concentrate of Prunus mume extract (3 mg/mL, 15 mg/mL as the extract before concentration), or nisin (10 μg/mL)+5-fold concentrate of Prunus mume extract (3 mg/mL, 15 mg/mL as the extract before concentration). The diluted culture medium (10 μL) was added to each test solution (1 mL). After contact of the bacterium with the test solution at room temperature for a predetermined number of days (0 to 7 days), the mixture (100 μL) was plated on TBS agar medium. The bacterium was cultured for 48 hours, and then the number of the colonies formed on the plate was counted. The results are shown in Tables 2 and 3 mentioned below and FIGS. 3 and 4. In Tables 2 and 3, “D+n” means the number of days (n days) for the contact of the diluted culture medium and the test solution (the same shall apply to the following descriptions).
# [2] = test system: Porphyromonas gingivalis W83 strain; test: Antibacterial activity against Porphyromonas gingivalis (2): growth inhibition effect by turbidity at 600 nm; format: cell-based; details: FIG. 2, 48 hours culture
# Procedure: The Porphyromonas gingivalis W83 strain, a causative bacterium of periodontal disease, was cultured to the logarithmic phase in the brain heart infusion medium containing hemin (5 mg/L) and metidione (1 mg/L). The culture medium was diluted with a citrate buffer containing 0.8% NaCl to adjust the number of bacteria (10^6 CFU/mL). Test solutions were prepared by dilution with sterilized purified water so as to contain the 5-fold concentrate of Prunus mume extract (10 mg/mL, 50 mg/mL as the extract before concentration), nisin (20 μg/mL), or the 5-fold concentrate of Prunus mume extract (10 mg/mL, 50 mg/mL as the extract before concentration)+nisin ([…]), and serially diluted 2-fold on a 96-well plate. To each well (containing 50 μL of test solution), the brain heart infusion medium (140 μL) containing hemin (5 mg/L) and metidione (1 mg/L) and the cell suspension (10 μL) were added. After culture for 48 hours, turbidity of the culture was measured at 600 nm. For evaluation, growth inhibition effect (%) was calculated according to the equation: Growth inhibition effect (%)=(1−(Turbidity observed with test solution)/(Turbidity observed with sterilized water))×100.
# [3] = test system: Gram-positive bacteria including acetic acid bacteria; details: background statement; cited from earlier work
# [4] = test system: Porphyromonas gingivalis ATCC 33277 strain; test: Antibacterial activity against Porphyromonas gingivalis (1): 1 minute contact, colony count; format: cell-based
# Procedure: The Porphyromonas gingivalis ATCC 33277 strain, a causative bacterium of periodontal disease, was cultured to the logarithmic phase in Enriched Tryptic Soy Broth (e-TSB). The culture medium was diluted with a citrate buffer (pH 4.5) containing 0.8% NaCl to adjust the number of bacteria (10^6 CFU/mL). Test solutions were prepared by dilution with sterilized purified water so as to contain the 5-fold concentrate of Prunus mume extract (3 mg/mL, 15 mg/mL as the extract before concentration), nisin (150 μg/mL), or nisin (150 μg/mL)+5-fold concentrate of Prunus mume extract (3 mg/mL, 15 mg/mL as the extract before concentration). The diluted culture medium (100 μL) was added to each test solution (5 mL). After contact of the bacterium with the test solution for 1 minute at room temperature, the mixture (100 μL) was added to and mixed with the e-TSB medium (5 mL), and the mixture (100 μL) was immediately plated on a blood agar medium under an anaerobic condition. The bacterium was cultured for 5 days under an anaerobic condition, and then the number of the colonies formed on the plate was counted. The results were as shown in Table 1 mentioned below and FIG. 1. In Table 1, “CFU” means colony-forming unit (the same shall apply to the following descriptions).
substance,measurement,setting,value
nisin A,"Number of bacteria, D + 0",[1]; 0 days contact,"4,540 CFU/mL"
same,"Number of bacteria, D + 1",[1]; 1 day contact,"1,740 CFU/mL"
same,"Number of bacteria, D + 3",[1]; 3 days contact,"1,430 CFU/mL"
same,"Number of bacteria, D + 7",[1]; 7 days contact,290 CFU/mL
same,growth inhibition effect (in words),"[2]; 2-fold serial dilution, overall",extremely low
same,growth inhibition effect (in words),[2]; at the 1/32 concentration (32-fold dilution),did not show any growth inhibition effect at all
same,concentration showing growth-suppressing effect,[3],about 1 ppb
same,antibacterial activity against Porphyromonas gingivalis (in words),"[4]; Example 1, Table 1 and FIG. 1",did not show any antibacterial activity at all
same,"Number of bacteria, After contact","[4]; after contact for 1 minute at room temperature, nisin 150 μg/mL, Prunus mume extract 3 mg/mL (5-fold concentrate)",1.0 × 10^6 CFU/mL
same,"Number of bacteria, Before contact","[4]; before contact, nisin 150 μg/mL, Prunus mume extract 3 mg/mL (5-fold concentrate)",1.0 × 10^6 CFU/mL
